Data as given in ChEMBL document CHEMBL1817598, “Design, synthesis and biological evaluation of a simplified fluorescently labeled discodermolide as a molecular probe to study the binding of discodermolide to tubulin” (Bioorg Med Chem, 2011).

How the values were obtained:
A2780 [1] = experiment: Ratio of compound IC50 to Paclitaxel IC50 for human A2780 cells; assay type: functional
[2] = Binding affinity to microtubule by spectrofluorometry
A2780 [3] = experiment: Cytotoxicity against human A2780 cells after 2 days by Alamar blue assay; assay type: functional, cell-based; conditions: A2780, 48 h
[4] = Effect on bovine brain tubulin assembly by spectrophotometry; parameters: species or system Bos taurus

| Kd [2] | EC50 [4] | Compound | Ratio IC50 (A2780 [1]) | IC50 (A2780 [3]) |
| --- | --- | --- | --- | --- |
| 24 µM | 5.2 µM | CCCC[C@H](C)[C@H](OC(N)=O)[C@@H](C)[C@H](O)[C@@H](C)C/C(C)=C\[C@H](C)[C@@H](O)[C@@H](C)/C=C\[C@@H](O)CCOC(=O)c1cccc(N(C)C)c1 | 386 | 5.4 µM |
| 0.015 µM | 0.49 µM | CC(=O)O[C@H]1C(=O)[C@@]2(C)[C@H]([C@H](OC(=O)c3ccccc3)[C@]3(O)C[C@H](OC(=O)[C@H](O)[C@@H](NC(=O)c4ccccc4)c4ccccc4)C(C)=C1C3(C)C)[C@]1(OC(C)=O)CO[C@@H]1C[C@@H]2O [PACLITAXEL] |  |  |
